Laboratory results: PMC12931196, “Vm–MSI: a Vancomycin–Antimicrobial Peptide Conjugate Combating Resistant Bacteria and Broadening the Antimicrobial Spectrum” (Advanced Science, 2025)
Like-named read-outs stand apart in the source and are kept apart here. Ends that are not written are not given here.

Key:
[1] = system: S. aureus CMCC26003; details: CMCC26003, 18 h
[2] = system: S. typhimurium ATCC14028; details: ATCC14028, 18 h
[3] = system: S. aureus 15772; details: 15772, 18 h
[4] = system: S. aureus ATCC29213; details: ATCC29213, 18 h
[5] = system: K. pneumoniae 9883; details: 9883, 18 h
[6] = system: MRSA ATCC43300; details: ATCC43300, 18 h
[7] = system: S. aureus 15192; details: 15192, 18 h
[8] = system: VRSA 52; details: VRSA 52; MH broth, 37 °C, 18 h, OD600
[9] = system: E. coli ATCC25922; details: ATCC25922, 18 h
[10] = system: 13 bacterial strains; test: GM of MIC from tested bacterial strains (Table S2); format: cell-based; details: 13 strains of Table S2
Protocol: (§1) The 2 fold broth microdilution method was performed following previously established protocols.^[ [65], [66] ^] A total of 29 strains of human pathogenic microorganisms (11 Gram‐positive and 18 Gram‐negative) were included in the assay. Standard strains were maintained in our laboratory, and clinical isolates were obtained from the Fourth Affiliated Hospital of Soochow University. […] Gradient dilutions of the drugs (vancomycin, AMPs, and vancomycin‐AMP conjugates) were prepared in 96‐well plates, with 50 µL of each drug solution added per well. For the vancomycin and AMP mixture, 25 µL of vancomycin was combined with 25 µL of AMP at the corresponding monomer gradient concentration, resulting in a total volume of 50 µL. […] Following incubation, bacterial growth was assessed by measuring absorbance at 600 nm. The MIC was defined as the lowest concentration at which no bacterial growth was detected.

[11] = system: A. baumannii ATCC19606; details: ATCC19606, 18 h
[12] = system: E. faecalis ATCC29212; details: ATCC29212, 18 h
[13] = system: P. aeruginosa ATCC27853; details: ATCC27853, 18 h
[14] = system: E. coli ATCC25922; test: Antimicrobial resistance development assay; format: cell-based; details: E. coli ATCC25922 cultured at sub‐MIC
[15] = system: MDR P. aeruginosa 5
[16] = system: MDR K. pneumoniae 4; details: MH broth, 37 °C, 18 h, OD600
[17] = system: P. aeruginosa 60357; test: MIC, 2 fold broth microdilution; format: cell-based; details: MH broth, 37 °C, 18 h, OD600
Protocol: as §1

[18] = system: S. typhimurium CICC21483; test: MIC, 2 fold broth microdilution; format: cell-based; details: MH broth, 37 °C, 18 h, OD600
Protocol: as §1

[19] = system: B. cereus CMCC63301; test: MIC, 2 fold broth microdilution; format: cell-based; details: MH broth, 37 °C, 18 h, OD600
Protocol: as §1

[20] = system: P. aeruginosa 52097; test: MIC, 2 fold broth microdilution; format: cell-based; details: MH broth, 37 °C, 18 h, OD600
Protocol: as §1

[21] = system: V. parahemolyticus ATCC17802; test: MIC, 2 fold broth microdilution; format: cell-based; details: MH broth, 37 °C, 18 h, OD600
Protocol: as §1

[22] = system: P. aeruginosa CMCC10104; test: MIC, 2 fold broth microdilution; format: cell-based; details: MH broth, 37 °C, 18 h, OD600
Protocol: as §1

[23] = system: S. flexneri CMCC51571; test: MIC, 2 fold broth microdilution; format: cell-based; details: MH broth, 37 °C, 18 h, OD600
Protocol: as §1

[24] = system: S. flexneri ATCC12022; test: MIC, 2 fold broth microdilution; format: cell-based; details: MH broth, 37 °C, 18 h, OD600
Protocol: as §1

[25] = system: MDR A. baumannii 1; details: MH broth, 37 °C, 18 h, OD600
[26] = system: VRSA 11; details: 11, 18 h
[27] = system: E. coli CMCC44102
[28] = system: C. perfringens ATCC13124; details: MH broth, 37 °C, 18 h, OD600
[29] = system: MDR K. pneumoniae 3; details: MH broth, 37 °C, 18 h, OD600
[30] = system: VRSA 52 biofilms; details: 8 µM, 4 h, SYTO9/PI CLSM
[31] = system: MDR K. pneumoniae 2; details: MH broth, 37 °C, 18 h, OD600
[32] = system: 29 bacterial strains (11 Gram‐positive, 18 Gram‐negative); test: GM of the MICs across the 29 bacterial strains; format: cell-based; details: MIC values exceeding 100 µg mL^−1 defaulted to 100 µg mL^−1
Protocol: as §1

[33] = system: E. faecalis 2
[34] = system: E. coli ATCC25922; test: Live/dead bacteria staining (PI/SYTO9, CLSM); format: cell-based; details: 4 µM, 1 h
[35] = system: E. coli ATCC25922 biofilm; format: cell-based; details: 4 µM, 48 h, crystal violet, OD595
Protocol: (§2) The mixture was incubated in a 96‐well plate for 48 h. Subsequent steps, including washing, fixation, staining, and OD measurement, were performed as described in the biofilm eradication assay.

[36] = system: MDR P. aeruginosa 5 biofilm; format: cell-based; details: 4 µM, 48 h, crystal violet, OD595
Protocol: as §2

[37] = system: human erythrocytes; test: Hemolytic activity assay; format: cell-based; details: 32 µM; human blood cells, 37 °C, 30 min, A540, 1% Triton X‐100 positive control
[38] = system: S. aureus CMCC26003 biofilm; test: Biofilm inhibition, crystal violet; format: cell-based; details: 4 µM, 48 h, OD595
Protocol: as §2

[39] = system: VRSA 52 biofilm; format: cell-based, S. aureus; details: 4 µM, 48 h, crystal violet, OD595
Protocol: as §2

[40] = system: E. coli ATCC25922 biofilms; details: 8 µM, 4 h, SYTO9/PI CLSM

| Compound | MIC [4] | MIC [5] | MIC [12] | MIC [16] | MIC [17] | MIC [18] | MIC [19] | MIC [20] | MIC [21] | MIC [22] | MIC [23] | MIC [24] | MIC [25] | MIC [28] | MIC [29] | killing in the middle layer of the biofilm [30] | MIC [31] | GM: Geometric mean of the MICs across the 29 bacterial strains [32] | bacteria killed (mortality) [34] | other results |
| --- | --- | --- | --- | --- | --- | --- | --- | --- | --- | --- | --- | --- | --- | --- | --- | --- | --- | --- | --- | --- |
| ILRWPWWPWRRK-NH2 [Omiganan] | 18.75(10.54) µg mL^−1 | >100(56.21) µg mL^−1 | 75(42.15) µg mL^−1 | – | – | – | – | – | – | – | – | – | – | – | – | – | – | – | – | MIC [1]: 2.34(1.32) µg mL^−1; MIC [2]: 37.5(21.08) µg mL^−1; MIC [3]: 18.75(10.54) µg mL^−1; MIC [6]: 37.5(21.08) µg mL^−1; MIC [7]: 18.75(10.54) µg mL^−1; MIC [8]: 9.38(5.27) µg mL^−1; MIC [9]: 18.75(10.54) µg mL^−1; GM: geometric mean of MIC from tested bacterial strains [10]: 36.00 µg/mL; MIC [11]: 75(42.15) µg mL^−1; MIC [13]: 18.75(10.54) µg mL^−1 |
| O=C(O)c1cn(C2CC2)c2cc(N3CCNCC3)c(F)cc2c1=O [ciprofloxacin] | – | – | – | – | – | – | – | – | – | – | – | – | – | – | – | – | – | – | – | change of MIC over 20 generations [14]: 64 fold |
| GIGKFLKKAKKFGKAFVKILKK-NH2 [MSI‐78] | 15.14(37.5) µM | 15.14(37.5) µM | 30.28(75) µM | 7.57(18.75) µM | 3.79(9.38) µM | 7.57(18.75) µM | 7.57(18.75) µM | 3.79(9.38) µM | 7.57(18.75) µM | 7.57(18.75) µM | 3.79(9.38) µM | 3.79(9.38) µM | 3.79(9.38) µM | 7.57(18.75) µM | 3.79(9.38) µM | 25% | 7.57(18.75) µM | 7.67(18.99) µM | 58% | MIC ([15]; MDR 5, 18 h): 1.89(4.69) µM; MIC [26]: 15.14(37.5) µM; MIC ([27]; CMCC44102, 18 h): 15.14(37.5) µM; MIC ([33]; 2, 18 h): 15.14(37.5) µM |
| CC[C@H](C)[C@H](NC(=O)CNC(=O)[C@@H](N)CSC1CC(=O)N(CC2CCC(C(=O)N(C)[C@H](CC(C)C)C(=O)N[C@H]3C(=O)N[C@@H](CC(N)=O)C(=O)N[C@H]4C(=O)N[C@H]5C(=O)N[C@H](C(=O)N[C@H](C(=O)O)c6cc(O)cc(O)c6-c6cc5ccc6O)[C@H](O)c5ccc(c(Cl)c5)Oc5cc4cc(c5O[C@@H]4O[C@H](CO)[C@@H](O)[C@H](O)[C@H]4O[C@H]4C[C@](C)(N)[C@H](O)[C@H](C)O4)Oc4ccc(cc4Cl)[C@H]3O)CC2)C1=O)C(=O)NCC(=O)N[C@@H](CCCCN)C(=O)N[C@@H](Cc1ccccc1)C(=O)N[C@@H](CC(C)C)C(=O)N[C@@H](CCCCN)C(=O)N[C@@H](CCCCN)C(=O)N[C@@H](C)C(=O)N[C@@H](CCCCN)C(=O)N[C@@H](CCCCN)C(=O)N[C@@H](Cc1ccccc1)C(=O)NCC(=O)N[C@@H](CCCCN)C(=O)N[C@@H](C)C(=O)N[C@@H](Cc1ccccc1)C(=O)N[C@H](C(=O)N[C@@H](CCCCN)C(=O)N[C@H](C(=O)N[C@@H](CC(C)C)C(=O)N[C@@H](CCCCN)C(=O)N[C@@H](CCCCN)C(N)=O)[C@@H](C)CC)C(C)C (stereo partly shown) [Vm‐MSI] | – | – | – | 4.42(18.75) µM | 2.21(9.38) µM | 4.42(18.75) µM | 2.21(9.38) µM | 2.21(9.38) µM | 8.84(37.5) µM | 4.42(18.75) µM | 2.21(9.38) µM | 1.10(4.69) µM | 1.10(4.69) µM | 2.21(9.38) µM | 2.21(9.38) µM | 60% | 4.42(18.75) µM | 2.60(11.03) µM | over 80% | biofilm formation inhibited [35]: 60%; biofilm formation inhibited [36]: 50%; MIC ([15]; MDR P. aeruginosa 5, MH broth, 37 °C, 18 h, OD600): 2.21(9.38) µM; hemolysis [37]: 10%; MIC ([27]; E. coli CMCC44102, MH broth, 37 °C, 18 h, OD600): 2.21(9.38) µM; biofilm formation inhibited [38]: 80%; biofilm formation inhibited [39]: 60%; killing at the bottom of the biofilm [40]: more than 75%; killing in the bottom layer of the biofilm [30]: 50%; killing in the surface layer of the biofilm (dead cells) [30]: 95%; MIC ([33]; E. faecalis 2, MH broth, 37 °C, 18 h, OD600): 4.42(18.75) µM |
